Where a SMILES comes first, the peptide text is derived from it. The star is where a group is joined. pNA = O=[N+]([O-])c1ccc(N*)cc1; Cbz = O=C(OCc1ccccc1)*
Assays:
[1] = tested on: trypsin; test: Degradation of 33-mer and 26-mer gliadin peptides by trypsin; assay type: in vitro ADME; conditions: peptide 250 µg/ml; trypsin 1 µg/ml in 50 mM ammonium bicarbonate, pH 8.0; sampled at t = 0 and 24 h; RP-HPLC
Experimental: (§1) Synthetic highly immunogenic peptides derived from α2-gliadin ([…]; 33-mer) or γ-gliadin ([…]; 26-mer) were synthesized at a purity of 95% (21st Century Biochemicals, Marlboro, MA), dissolved in deionized water to 10 mg/ml. The peptides (final concentration 250 µg/ml) were incubated with trypsin or chymotrypsin (1 µg/ml in 50 mM ammonium bicarbonate, pH 8.0), or pepsin (1 µg/ml in 0.1 M HCl, pH 1.0) or strain WSA-8 (R. aeria) in saliva ion buffer (OD620 1.2, pH 7.0). Degradation of the 33-mer and 26-mer over time was monitored in 100 µl aliquots by RP-HPLC as reported previously.
(§2) The 100 µl sample aliquots were mixed with 900 µl buffer A containing 0.1% (v/v) trifluoroacetic acid (TFA), filtered and analyzed by RP-HPLC using a HPLC Model 715 (Gilson, Middleton, WI) and a C-18 column (TSK-GEL 5 µm, ODS-120T, 4.6×250 mm, TOSOHaas, Montgomeryville, PA). Peptides were eluted using a linear gradient from 0% to 55% buffer B containing 80% (v/v) acetonitrile and 0.1% (v/v) TFA over a 75 min time interval at a flow rate of 1.0 ml/min. The eluate was monitored at 219 and 230 nm and eluting fractions were collected using peak width and peak sensitivity settings of 1.2 and 5, respectively (Unipoint version 3.3, Gilson). […]
(§3) Figure 4 Degradation of the 33-mer by mammalian enzymes and by enzymes associated with R. aeria. […] Degradation of the 33-mer in incubation aliquots was monitored by RP-HPLC. […]

[2] = tested on: pepsin; test: Degradation of 33-mer and 26-mer gliadin peptides by pepsin; assay type: in vitro ADME; conditions: peptide 250 µg/ml; pepsin 1 µg/ml in 0.1 M HCl, pH 1.0; sampled at t = 0 and 24 h; RP-HPLC
Experimental: as §1, §2, §3

[3] = tested on: chymotrypsin; test: Degradation of 33-mer and 26-mer gliadin peptides by chymotrypsin; assay type: in vitro ADME; conditions: peptide 250 µg/ml; chymotrypsin 1 µg/ml in 50 mM ammonium bicarbonate, pH 8.0; sampled at t = 0 and 24 h; RP-HPLC
Experimental: as §1, §2, §3

[4] = tested on: WSA-8 (R. aeria); test: Degradation and fragment analysis of 33-mer and 26-mer in a suspension of WSA-8; assay type: in vitro ADME, Rothia aeria; conditions: peptide 250 µg/ml; WSA-8 (R. aeria) in saliva ion buffer, OD620 1.2, pH 7.0; sampled at 0, 30, 60, 120 min; RP-HPLC
Experimental: as §1
as §2, with “Peptides were eluted using a linear gradient from 0% to 55% buffer B containing 80% (v/v) acetonitrile and 0.1% (v/v) TFA over a 75 min time interval at a flow rate of 1.0 ml/min.” left out
All dried peaks were dissolved in 25 µl of a solution containing 5% acetonitrile and 0.1% formic acid. […] The raw MS/MS data of the peptide ions in each of the analyzed samples were searched against an in-house generated database containing the sequences of the 33-mer and the 26-mer using SEQUEST software (Bioworks Browser 3.3.1, Thermo-Finnigan). […]

[5] = tested on: WSA-8 (R. aeria); test: pH activity analysis: Z-YPQ-pNA hydrolysis by WSA-8 cells; assay type: biochemical, Rothia aeria; conditions: Z-YPQ-pNA 200 µM, WSA-8 cells OD620 1.2, 20 mM Tris, 405 nm, activity not reactivated at neutral pH
Experimental: Figure 6 Gliadin zymography (6%) of Rothia strains and pH activity analysis. In the zymogram gels 150 µl cells (OD620 5.0) were applied per lane. Lane 1, strain WSA-2B (R. mucilaginosa); lanes 2: strain WSA-8 (R. aeria), lane 3: strain WSA-26 (R. mucilaginosa); lane 4: strain ATCC 25296 (R. mucilaginosa). A, gel developed at pH 7.0; B, gel developed at pH 3.0. C, Z-YPQ-pNA (200 µM) hydrolysis by WSA-8 cells (OD620 1.2) measured in 20 mM Tris solutions ranging in pH from 2.0 to 10.0. Measurements at 405 nm were carried out hourly for the first 6 hours and after 24 h and 72 h.
To determine protease activities under conditions that are representative of the stomach, the zymogram gel with the four Rothia strains was also developed at pH 3.0 (Figure 6B). […] To further investigate the pH range over which strain R. aeria was active, Z-YPQ-pNA substrate hydrolysis was measured in solutions ranging in pH from 2.0 to 10.0. […] Substrate hydrolysis rates decreased in parallel with decreasing pH values from pH 7.0 to pH 4.0. At pH 3.0 substrate cleavage was noted only after 72 h incubation. The slow but noticeable enzyme activity of R. aeria at this pH value is consistent with the gliadin zymogram results presented in Figure 6B.

[6] = bacterial suspension in saliva ion buffer (OD620 1.2); conditions: up to 24 h
[7] = WSA-8 cells (OD620 1.2) in 20 mM Tris solution, pH 2.0; conditions: Rothia aeria (strain WSA-8), up to 72 h

For CC(C)C[C@H](NC(=O)[C@H](CCC(N)=O)NC(=O)[C@@H](N)CC(C)C)C(=O)N[C@@H](CCC(N)=O)C(=O)N1CCC[C@H]1C(=O)N[C@@H](Cc1ccccc1)C(=O)N1CCC[C@H]1C(=O)N[C@@H](CCC(N)=O)C(=O)N1CCC[C@H]1C(=O)N[C@@H](CCC(N)=O)C(=O)N[C@@H](CC(C)C)C(=O)N1CCC[C@H]1C(=O)N[C@@H](Cc1ccc(O)cc1)C(=O)N1CCC[C@H]1C(=O)N[C@@H](CCC(N)=O)C(=O)N1CCC[C@H]1C(=O)N[C@@H](CCC(N)=O)C(=O)N[C@@H](CC(C)C)C(=O)N1CCC[C@H]1C(=O)N[C@@H](Cc1ccc(O)cc1)C(=O)N1CCC[C@H]1C(=O)N[C@@H](CCC(N)=O)C(=O)N1CCC[C@H]1C(=O)N[C@@H](CCC(N)=O)C(=O)N[C@@H](CC(C)C)C(=O)N1CCC[C@H]1C(=O)N[C@@H](Cc1ccc(O)cc1)C(=O)N1CCC[C@H]1C(=O)N[C@@H](CCC(N)=O)C(=O)N1CCC[C@H]1C(=O)N[C@@H](CCC(N)=O)C(=O)N1CCC[C@H]1C(=O)N[C@@H](Cc1ccccc1)C(=O)O [33-mer] (H-LQLQPFPQPQLPYPQPQLPYPQPQLPYPQPQPF-OH), the degradation by trypsin [1] was “resistant to degradation”, the degradation by pepsin [2] was “resistant to degradation” and the degradation by chymotrypsin [3] was “resistant to degradation”.

With CC(C)C[C@H](NC(=O)[C@@H](N)Cc1ccccc1)C(=O)N[C@@H](CCC(N)=O)C(=O)N1CCC[C@H]1C(=O)N[C@@H](CCC(N)=O)C(=O)N[C@@H](CCC(N)=O)C(=O)N1CCC[C@H]1C(=O)N[C@@H](Cc1ccccc1)C(=O)N1CCC[C@H]1C(=O)N[C@@H](CCC(N)=O)C(=O)N[C@@H](CCC(N)=O)C(=O)N1CCC[C@H]1C(=O)N[C@@H](CCC(N)=O)C(=O)N[C@@H](CCC(N)=O)C(=O)N1CCC[C@H]1C(=O)N[C@@H](Cc1ccc(O)cc1)C(=O)N1CCC[C@H]1C(=O)N[C@@H](CCC(N)=O)C(=O)N[C@@H](CCC(N)=O)C(=O)N1CCC[C@H]1C(=O)N[C@@H](CCC(N)=O)C(=O)N[C@@H](CCC(N)=O)C(=O)N1CCC[C@H]1C(=O)N[C@@H](Cc1ccccc1)C(=O)N1CCC[C@H]1C(=O)N[C@@H](CCC(N)=O)C(=O)O [26-mer] (H-FLQPQQPFPQQPQQPYPQQPQQPFPQ-OH) the degradation by trypsin [1] was “resistant to degradation”, the degradation by pepsin [2] was “resistant to degradation” and the “degradation in a cell suspension of WSA-8 over the 2 h time interval” value [4] was “sensitive to proteolytic degradation”. For the same molecule, the degradation by chymotrypsin [3] was “resistant to degradation”.

In the case of “benzyloxycarbonyl-YPQ-paranitroanilide [Z-YPQ-pNA]”, the “substrate hydrolysis at pH 2.0” value [5] is reported as “no Z-YPQ-pNA hydrolysis could be observed”.

In the case of Cbz-Tyr-Pro-Gln-pNA, the not cleaved ([6]; Bifidobacterium dentium HOT-588 (strain PAN-5)) is reported as “− after 24 h”, the not cleaved ([6]; Bifidobacterium dentium HOT-588 (strain PAN-8)) is reported as “− after 24 h” and the not cleaved ([6]; Bifidobacterium dentium HOT-588 (strain PAN-18)) is reported as “− after 24 h”. For the same molecule, the not cleaved ([6]; Bifidobacterium dentium HOT-588 (strain PAN-19)) was “− after 24 h”, the not cleaved ([6]; Bifidobacterium dentium HOT-588 (strain PAN-23)) was “− after 24 h” and the not cleaved ([6]; Bifidobacterium longum HOT-B54 (strain WSAN-14)) was “− after 24 h”. For the same molecule, the not cleaved ([6]; Bifidobacterium longum HOT-B54 (strain WSAN-16)) was “− after 24 h”, the not cleaved ([6]; Bifidobacterium longum HOT-B54 (strain WSAN-24)) was “− after 24 h” and the not cleaved ([6]; Staphylococcus epidermidis HOT-601 (strain WSA-10)) was “− (inactive) after 24 h”. The not cleaved ([6]; Streptococcus pneumoniae HOT-734 (strain PAN-0)) was “− after 24 h”, the not cleaved ([6]; Veilonella atypica HOT-524 (strain WSAN-25)) was “− after 24 h” and the not cleaved [7] was “no Z-YPQ-pNA hydrolysis could be observed”.
